The pEC50 is the EC50 on a negative log10 scale, so that one unit is a factor of ten. The term AUC denotes the area under the concentration-time curve, a measure of exposure. For orientation: Cmax means the highest concentration seen after dosing.

Consider 17 compounds from ChEMBL document CHEMBL5104127, “Design and preparation of N-linked hydroxypyridine-based APJ agonists” (Bioorg Med Chem Lett, 2022).

pEC50: −log10 of the molar value.

In data set [1] the target is T1, Apelin receptor (Homo sapiens, UniProt P35414).
T1 sequence (P35414 whole entry): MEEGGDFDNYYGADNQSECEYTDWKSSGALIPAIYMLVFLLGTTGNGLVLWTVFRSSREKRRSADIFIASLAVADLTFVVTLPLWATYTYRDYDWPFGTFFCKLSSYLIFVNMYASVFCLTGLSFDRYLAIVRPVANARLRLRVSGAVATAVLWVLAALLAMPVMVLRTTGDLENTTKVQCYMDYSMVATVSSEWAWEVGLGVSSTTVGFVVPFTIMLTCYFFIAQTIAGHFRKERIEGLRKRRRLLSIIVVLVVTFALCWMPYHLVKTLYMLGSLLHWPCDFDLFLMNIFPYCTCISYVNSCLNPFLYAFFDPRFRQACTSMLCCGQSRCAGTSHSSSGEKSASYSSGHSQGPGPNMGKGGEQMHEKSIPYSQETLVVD
Briefly: Agonist activity at human APJ receptor expressed in HEK293 cells assessed as compound stimulated inhibition of forskolin stimulated cAMP production incubated for 30 mins and measured by fluorescence based assay. Format: functional, cell-based.

Data set [2] is described as follows: Metabolic stability in human liver microsomes incubated for 10 mins and assessed as compound remaining. Particulars: read-out: Stability. Format: ADME, Microsome.
Data set [3] in a line: Metabolic stability in rat liver microsomes incubated for 10 mins and assessed as compound remaining. It counts as ADME, Microsome. To be noted: read-out: Stability. Background: Liver microsomes are a subcellular fraction often used to study metabolism.
Data set [4] can be described thus: AUC in rat at 1 mg/kg, po. It counts as ADME, organism-based. Particulars: in vivo. More on the design: dose 1 mg/kg, route po.
Data set [5] in a line: Cmax in rat at 1 mg/kg, po. Further details: dose 1 mg/kg, route po. To be noted: in vivo. Format: ADME, organism-based.

As for `CCCCc1nc(O)c(C(=O)N2CC[C@H](c3ccccc3)C2)c(O)c1N1CCc2ccccc21`, the pEC50 in data set [1] is 7.68.

As to `CCCCc1nc(O)c(C(=O)N2CCC(c3ncc(F)cc3F)C2)c(O)c1N(CC)c1ccccc1` (stereo unspecified), in data set [1], the pEC50 was 9.62.

Regarding `CCN(c1ccccc1)c1c(-c2cccc(C)c2)nc(O)c(C(=O)N2CCC(c3ncc(F)cc3F)C2)c1O` (stereo unspecified), the remaining at 10 min amounted to 57% in data set [2] and 7% in data set [3]. In data set [1], the pEC50 was 10.00.

`CCCCc1nc(O)c(C(=O)N2CC[C@H](c3ccccc3)C2)c(O)c1N(C)c1ccccc1OC`: the negative logarithm of the EC50 (pEC50) in data set [1] is less than 7.12.

As to `CCCCc1nc(O)c(C(=O)N2CC[C@H](c3ccccc3)C2)c(O)c1N(C)c1ccc(OC)cc1`, the pEC50 in data set [1] was 7.21.

`CCCCc1nc(O)c(C(=O)N2CCC(c3ncc(Cl)cc3F)C2)c(O)c1N(CC)c1ccccc1` (stereo unspecified): the values for the remaining at 10 min in data set [2] and in data set [3] were 53% and 12%, respectively. Further, the pEC50 in data set [1] is 9.62.

Take `CCN(c1ccccc1)c1c(CC2CC2)nc(O)c(C(=O)N2CCC(c3ncc(F)cc3F)C2)c1O` (stereo unspecified): the pEC50 in data set [1] was 7.89.

For `CCN(c1ccccc1)c1c(-c2ccn(C)n2)nc(O)c(C(=O)N2CCC(c3ncc(F)cc3F)C2)c1O` (stereo unspecified), in data set [4], the AUC turned out to be 4.8 µM·h. The remaining at 10 min in data set [2] is 87%; in data set [3] it was 82%. The pEC50 in data set [1] was 9.52. This compound yielded a Cmax in data set [5] of 5.2 µM.

For the compound `CCCCc1nc(O)c(C(=O)N2CC[C@H](c3ccccc3)C2)c(O)c1N(C)c1cccc(OC)c1`, the pEC50 in data set [1] is less than 7.12.

As to `CCCCc1nc(O)c(C(=O)N2CC[C@@H](c3ccccc3)C2)c(O)c1N(CC)c1ccccc1`, the remaining at 10 min in data set [2] amounted to 56%; in data set [3], 17%. Besides, in data set [1], the negative-log EC50 (pEC50) is 7.92.

As for `CCCCc1nc(O)c(C(=O)N2CCC(c3ccccc3F)C2)c(O)c1N(CC)c1ccccc1` (stereo unspecified), in data set [1], the pEC50 is 8.08.

On to `CCCCc1nc(O)c(C(=O)N2CCN(Cc3cccc(Cl)c3Cl)CC2)c(O)c1N(CC)c1ccccc1`, for which the pEC50 in data set [1] was 7.80.

In the case of `CCCCc1nc(O)c(C(=O)N2CCC(c3ccc(Cl)cn3)C2)c(O)c1N(CC)c1ccccc1` (stereo unspecified), the figures for the remaining at 10 min in data set [2] and in data set [3] were 62% and 26%, respectively. The pEC50 in data set [1] is 9.55.

On to `CCCCc1nc(O)c(C(=O)N2CC[C@H](c3ccccc3)C2)c(O)c1N(CC)c1ccccc1`, for which the remaining at 10 min is 27% in data set [2] and 7% in data set [3]. In addition, in data set [1], the pEC50 was 7.89.

`CCCCc1nc(O)c(C(=O)N2CC[C@H](c3ccccc3)C2)c(O)c1N(c1ccccc1)C(C)C`: the pEC50 in data set [1] was 7.46.

Consider `CCCCc1nc(O)c(C(=O)N2CC[C@H](c3ccccc3)C2)c(O)c1N1CCCc2ccccc21`, for which the pEC50 in data set [1] is less than 6.82.

`CCCCc1nc(O)c(C(=O)N2CC[C@H](c3ccccc3)C2)c(O)c1N(C)c1ccccc1`: the pEC50 in data set [1] was 7.42.
